In PubChem BioAssay (NCI):
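Cultured in 96-well plates, cells were exposed to test compound for 48 hours across five concentrations. At the GI50, growth is halved. The concentration for full growth arrest is given as TGI.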

Tests used:
Test in all cases: NCI-60 cell line screen, 48 h
DLD-1 colon = test system: DLD-1 colon
LXFL 529 NSCLC = test system: LXFL 529 NSCLC
HOP-18 NSCLC = test system: HOP-18 NSCLC
DMS 114 small cell lung = test system: DMS 114 small cell lung
XF 498 CNS = test system: XF 498 CNS
RXF-631 renal = test system: RXF-631 renal

| Compound | GI50 (DLD-1 colon) | TGI (DLD-1 colon) | GI50 (LXFL 529 NSCLC) | TGI (LXFL 529 NSCLC) | GI50 (HOP-18 NSCLC) | TGI (HOP-18 NSCLC) | TGI (DMS 114 small cell lung) | TGI (XF 498 CNS) | TGI (RXF-631 renal) |
| --- | --- | --- | --- | --- | --- | --- | --- | --- | --- |
| CC(=O)[CH-]C(=O)c1ccccc1.CC(=O)[CH-]C(=O)c1ccccc1.CC[C@H](CCC(C)[C@H]1CCC2[C@@H]3CC=C4C[C@@H]([O-])CC[C@]4(C)C3CC[C@@]21C)C(C)C.CC[C@H](CCC(C)[C@H]1CCC2[C@@H]3CC=C4C[C@@H]([O-])CC[C@]4(C)C3CC[C@@]21C)C(C)C.Cl.[Ti+4] (stereo not given in full) | > 25 µM | > 25 µM | > 25 µM | > 25 µM | > 25 µM | > 25 µM |  |  |  |
| C=CCc1cc(OC)c(O)c(C(=O)/C=C/c2ccc(OC)c(OC)c2)c1 |  | 37.2 µM |  | 54.7 µM |  |  | 52.1 µM | 27 µM | 83.9 µM |
| Cc1cc(N(CCC#N)CCC#N)ccc1/C(Sc1ccccc1)=C(\NC(=O)/C=C/c1ccccc1)C(=O)Sc1ccccc1 |  | 9.95 µM |  | 12.6 µM |  | 51.1 µM | 4.53 µM | 30.4 µM | > 32.2 µM |
| [N-]=[N+]=NC1(Cc2ccccc2)C(=O)Nc2ccccc2C1=O (stereo not given) |  | > 100 µM |  | > 100 µM |  | > 100 µM | > 100 µM | > 100 µM |  |
| O=C1NC(=S)NC(=O)C1=Cc1ccc([N+](=O)[O-])o1 |  | 39 µM |  | 30.5 µM |  | 35.3 µM | 34.6 µM | 52.3 µM | 33.5 µM |
| CCCN(CCCC(NC(C)=O)C(=O)NCc1ccccc1)C(=O)N(C)N=O (stereo not given) |  | > 100 µM |  | > 100 µM |  |  | > 100 µM | > 100 µM |  |
| Cc1c(N)c(C#N)c2n(C)c3ncccc3n2c1=O |  | > 100 µM |  | > 100 µM |  | > 100 µM |  | > 100 µM |  |
| CC1=CP(=O)(OC(C)C)C=C(C)C1=C(Cl)Cl (stereo not given) |  | > 100 µM |  | > 100 µM |  | > 100 µM | > 100 µM | > 100 µM | > 100 µM |
| CC(=O)c1ccc(NC(=O)C(=O)CC(=O)c2sc(-n3nc(-c4ccccc4)cc3-c3ccccc3)nc2C)cc1 |  | > 100 µM |  | > 100 µM |  |  | > 100 µM |  | > 100 µM |
| CC12CCC(=O)N1[C@@H](c1ccccc1)[C@@H](c1ccccc1)O2 (stereo not given in full) |  | > 100 µM |  | > 100 µM |  |  | > 100 µM | > 100 µM |  |
